Source: US7419780B2, “Methods and assays for screening protein targets” (The Trustees of Columbia University in the City of New York, priority 2000, dated 2008)

Experiments:
Format in all cases: cell-based, S. cerevisiae
Details in all cases: 1 uM small molecule, difference to activity without small molecule, average of two trials
[1] = target: T1, LexA (GSG)2eDHFR / B42 gly6rGR2 (UniProt P06536+P0ABQ4, C656G/F620S); assay: β-galactosidase activity assay, strain V499Y
T1 construct: rat Glucocorticoid Receptor (aa 524-795) with point mutations; expressed in transfected cells; host or cells: S. cerevisiae FY250
T1 sequence (P0ABQ4 1-159): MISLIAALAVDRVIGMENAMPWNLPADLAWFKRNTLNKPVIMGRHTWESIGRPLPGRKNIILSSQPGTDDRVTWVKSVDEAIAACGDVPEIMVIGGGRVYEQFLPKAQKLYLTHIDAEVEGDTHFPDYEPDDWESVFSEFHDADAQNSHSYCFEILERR
T1 sequence (P06536 524-795 F620S/C656G limits assumed): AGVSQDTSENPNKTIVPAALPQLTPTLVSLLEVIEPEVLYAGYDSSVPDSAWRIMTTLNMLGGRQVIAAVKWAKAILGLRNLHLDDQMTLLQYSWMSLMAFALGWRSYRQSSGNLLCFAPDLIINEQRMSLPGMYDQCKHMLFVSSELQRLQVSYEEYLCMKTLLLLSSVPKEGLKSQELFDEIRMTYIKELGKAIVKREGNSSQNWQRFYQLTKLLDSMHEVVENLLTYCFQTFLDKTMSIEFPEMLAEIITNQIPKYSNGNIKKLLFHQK
Source text: (§1) Table III explains the components of each strain. Each strain was constructed from the parent yeast strain FY250 and also contains the pMW106 plasmid, which has the LacZ reporter gene that is turned on only in when the LexA DNA binding domain and the B42 activation are brought in tot he vicinity of each other. We use several different strains because we use DHFR from two different species, mDHFR is from murine, while eDHFR is from E. coli. We are asl oable to switch the small moleculebinding domains. For example, the strain containing LexA-eDHFR with B42-rGH2 is a different strain and behaves differently from the strain containing LexA-rGR2 with B42-eDHFR. We also put in short 6 amino acid linkers between the two domains of our protein chimeras and thus these are different strain as well.
(§2) The results in Table IV are averages of two separate trials. Each strain was examined with small molecules and without small molecules. The absolute activity is given as the β-galactisidase activity […]. The average β-galactosidse activity for a strain without small molecule (i.e. the negative control) was about 100 β-galactosidase units.

[2] = target: T2, LexA rGR2 / B42 (GSG)2mDHFR (UniProt P00375+P06536, C656G/F620S); assay: β-galactosidase activity assay, strain V511Y
T2 construct: expressed in transfected cells; host or cells: S. cerevisiae FY250 with pMW106 lacZ reporter
T2 sequence (P06536 524-795 F620S/C656G limits assumed): T1 sequence (P06536 524-795 F620S/C656G limits assumed)
T2 sequence (P00375 1-187): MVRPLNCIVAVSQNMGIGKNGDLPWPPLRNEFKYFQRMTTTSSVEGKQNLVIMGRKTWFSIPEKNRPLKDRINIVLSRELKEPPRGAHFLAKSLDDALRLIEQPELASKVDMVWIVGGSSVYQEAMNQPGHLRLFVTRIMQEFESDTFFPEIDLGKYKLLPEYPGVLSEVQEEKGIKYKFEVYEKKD
Source text: as §1, §2

[3] = target: T3, LexA rGR2 / B42 (GSG)2eDHFR (UniProt P06536+P0ABQ4, C656G/F620S); assay: β-galactosidase activity assay, strain V509Y
T3 construct: expressed in transfected cells; host or cells: S. cerevisiae FY250 with pMW106 lacZ reporter
T3 sequence (P06536 524-795 F620S/C656G limits assumed): T1 sequence (P06536 524-795 F620S/C656G limits assumed)
T3 sequence (P0ABQ4 1-159): T1 sequence (P0ABQ4 1-159)
Source text: as §1, §2

[4] = target: T4, LexA (GSG)2mDHFR / B42 rGR2 (UniProt P00375+P06536, C656G/F620S); assay: β-galactosidase activity assay, strain V502Y
T4 construct: rat Glucocorticoid Receptor (aa 524-795) with point mutations; expressed in transfected cells; host or cells: S. cerevisiae FY250
T4 sequence (P00375 1-187): T2 sequence (P00375 1-187)
T4 sequence (P06536 524-795 F620S/C656G limits assumed): T1 sequence (P06536 524-795 F620S/C656G limits assumed)
Source text: as §1, §2

[5] = target: T5, LexA eDHFR / B42 (GSG)rGR2 (UniProt P06536+P0ABQ4, C656G/F620S); assay: β-galactosidase activity assay, strain V494Y
T5 construct: rat Glucocorticoid Receptor (aa 524-795) with point mutations; expressed in transfected cells; host or cells: S. cerevisiae FY250
T5 sequence (P0ABQ4 1-159): T1 sequence (P0ABQ4 1-159)
T5 sequence (P06536 524-795 F620S/C656G limits assumed): T1 sequence (P06536 524-795 F620S/C656G limits assumed)
Source text: as §1, §2

[6] = target: T6, LexA eDHFR / B42 rGR2 (UniProt P06536+P0ABQ4, C656G/F620S); assay: β-galactosidase activity assay, strain V493Y
T6 construct: rat Glucocorticoid Receptor (aa 524-795) with point mutations; expressed in transfected cells; host or cells: S. cerevisiae FY250
T6 sequence (P0ABQ4 1-159): T1 sequence (P0ABQ4 1-159)
T6 sequence (P06536 524-795 F620S/C656G limits assumed): T1 sequence (P06536 524-795 F620S/C656G limits assumed)
Source text: as §1, §2

[7] = target: T7, LexA (GSG)2rGR2 / B42 eDHFR (UniProt P06536+P0ABQ4, C656G/F620S); assay: β-galactosidase activity assay, strain V506Y
T7 construct: expressed in transfected cells; host or cells: S. cerevisiae FY250 with pMW106 lacZ reporter
T7 sequence (P06536 524-795 F620S/C656G limits assumed): T1 sequence (P06536 524-795 F620S/C656G limits assumed)
T7 sequence (P0ABQ4 1-159): T1 sequence (P0ABQ4 1-159)
Source text: as §1, §2

[8] = target: T8, LexA mDHFR / B42 rGR2 (UniProt P00375+P06536, C656G/F620S); assay: β-galactosidase activity assay, strain V495Y
T8 construct: rat Glucocorticoid Receptor (aa 524-795) with point mutations; expressed in transfected cells; host or cells: S. cerevisiae FY250
T8 sequence (P00375 1-187): T2 sequence (P00375 1-187)
T8 sequence (P06536 524-795 F620S/C656G limits assumed): T1 sequence (P06536 524-795 F620S/C656G limits assumed)
Source text: as §1, §2

[9] = target: T9, LexA (GSG)2mDHFR / B42 gly6rGR2 (UniProt P00375+P06536, C656G/F620S); assay: β-galactosidase activity assay, strain V503Y
T9 construct: expressed in transfected cells; host or cells: S. cerevisiae FY250 with pMW106 lacZ reporter
T9 sequence (P00375 1-187): T2 sequence (P00375 1-187)
T9 sequence (P06536 524-795 F620S/C656G limits assumed): T1 sequence (P06536 524-795 F620S/C656G limits assumed)
Source text: as §1, §2

[10] = target: T10, LexA (GSG)2rGR2 / B42 (GSG)2mDHFR (UniProt P00375+P06536, C656G/F620S); assay: β-galactosidase activity assay, strain V512Y
T10 construct: rat Glucocorticoid Receptor (aa 524-795) with point mutations; expressed in transfected cells; host or cells: S. cerevisiae FY250
T10 sequence (P06536 524-795 F620S/C656G limits assumed): T1 sequence (P06536 524-795 F620S/C656G limits assumed)
T10 sequence (P00375 1-187): T2 sequence (P00375 1-187)
Source text: as §1, §2

SMILES: C[C@@H]1C[C@H]2C3CCC4=CC(=O)C=C[C@]4(C)[C@@]3(F)[C@@H](O)C[C@]2(C)[C@@]1(O)C(=O)NCCSCCCCCCCCCCSCC[C@H](NC(=O)c1ccc(N(C)Cc2cnc3nc(N)nc(N)c3n2)cc1)C(=O)O (stereo partly shown) [D10M]
- B-gal activity [1]: 4013 β-galactosidase units
- B-gal activity [2]: −60 β-galactosidase units
- B-gal activity [3]: 2028 β-galactosidase units
- B-gal activity [4]: 497 β-galactosidase units
- B-gal activity [5]: 9398 β-galactosidase units
- B-gal activity [6]: 5812 β-galactosidase units
- B-gal activity [7]: 2561 β-galactosidase units
- B-gal activity [8]: 513 β-galactosidase units
- B-gal activity [9]: 1132 β-galactosidase units
- B-gal activity [10]: 6 β-galactosidase units
